Patent US20250320501A1, “PALMITOYLATION OF THE ALTERNATIVE AMINO TERMINUS OF THE BTK-C ISOFORM CONTROLS SUBCELLULAR DISTRIBUTION AND SIGNALING” (The Research Foundation for the State University of New York, priority 2022, published 2025)
Blank lines part the entries; values can stand above or below the compound they belong to.

What was measured:
[1] = test system: BTK-A and BTK-C; assay: Activating phosphorylation of BTK isoforms after stimulation with other ligands; type: cell-based, human; details: ligand stimulation (not shown)
[2] = test system: LNCaP C42b prostate cancer cell line; assay: Toxicity of PI3K inhibition in LNCaP C42b cells; type: cell-based; details: PTEN- LNCaP C42b prostate cancer cell line, compared with breast cells
[3] = test system: breast cells; assay: Toxicity of PI3K inhibition in breast cells; type: cell-based; details: breast cells (not shown)
Description: Regulation of BTK-C localization and activity by PIP3 levels: Activation of BTK-A in B cells has been extensively studied. Adsorption of BTK-A to the B cell plasma membrane is driven by binding to PIP3 which opens the BTK monomer conformation allowing dimerization, auto-activation (Y223 phosphorylation) and transactivation (Y551 phosphorylation). […] Mutation of the analogous arginine in BTK-C(R62 in BTK-C) causes it to fail to localize to the membrane (FIG. 3S). […] For example, MDA-MB-231 cells which are PTEN^+ display less plasma membrane staining when compared to SUM149 cells which are PTEN. […] This PIP3-dependent activation may occur through BTK-C dimer formation through juxtaposed membrane-bound PH domains as occurs with the BTK-A. Using an assay developed by Chung et al., co-transfecting BTK-C with the BTK-C-GFP construct which contains the PH domain but is missing the kinase domain reduces Y551 phosphorylation compared with vector or BTK-C only (FIG. 4D).

[4] = biological target: T1, BTK-C (Homo sapiens, UniProt Q06187, M35A); assay: Acyl incorporation assay (click chemistry after Flag immunoprecipitation), BTK-C; type: cell-based; details: HEK293 cells co-expressing zDHHC5, 100 μM analogue for 4 h
T1 construct: cells expressing Flag-tagged, full-length versions of BTK-A and BTK-C; expressed in transfected cells; host or cells: HEK293
Protocol: (§1) FIG. 2A-D presents the BTK-C isoform palmitoylated: FIG. 2A presents a diagram of BTK isoform C-terminal Flag-tagged constructs: FIG. 2B presents an expression of Flag-tagged constructs in MDA-MB-231 cells; FIG. 2C presents detection scheme for acylated BTK isoforms. Cells were incubated with 17-ODYA. Flag immunoprecipitates were reacted with azide-activated biotinylation reagent and detected through reaction with streptavidin-linked horseradish peroxidase; and FIG. 2D presents HEK293 cells were transfected with 1 μg of BTK-A, BTK-C, or BTK-C C13A, C16A and 2 μg of a plasmid expressing zDHHC5. 24 h after transfection cells were incubated for 4 h with 100 μM palmitic acid alkyne (17-ODYA). Cell lysate supernatants were immunoprecipitated with Anti-Flag M2 affinity gel (Sigma) at 4° C. overnight, subjected to click chemistry with 20 μM biotin picolyl azide for 30 m at room temperature before electrophoresis and blotting.
Reporter construction and viral transgenesis: GFP fusion constructs were generated using a BTK pleckstrin homology domain fusion protein vector, PH-Btk-GFP (Addgene Plasmid #51463). BTK constructs (BTK-A R28C; BTK-C; BTK-C R28C; BTK-C C13A, C16A; BTK-C C13A,C16A,R28C) were generated in this plasmid using QuikChange site directed mutagenesis. The exon 1C sequence (FIG. 1B) was subcloned from the original cDNA isolate. To prevent internal translational initiation at the BTK-A ATG, this codon was changed to Ala in all BTK-C constructs. Production of either the 77 kDa BTK-A isoform or the 65 kDa p65BTK was not observed for BTK-C constructs. GFP reporters were subcloned into MARXIVpuro REV plasmid (22). Full-length mutant proteins were produced by subcloning into a BTK gene with a C-terminal Flag tag expressed from a MARXIVpuro REV vector. DNA sequence was confirmed by DNA sequence analysis for all constructs. ϕNX-Ampho cells were transfected with Flag-tagged versions of BTK as described. Empty vector was used as a control. A lentivirus-born shRNA targeting the chromosomal BTK 3′UTR TRCN0000000358 (Sigma-Aldrich, Saint Louis, MO) was used to silence endogenous BTK isoform expression such that each line predominantly expresses the wild-type or mutant version of the intended isoform. BTK acylation: HEK293 cells plated on 6 wells plates were transfected using X-tremeGENE HP transfection reagent (Sigma-Aldrich, Saint Louis, MO) with 1 μg of BTK-C, BTK-A, or BTK-C C13A, C16A with 2 μg of zDHHC5 plasmid. 24 hours after transfection, cells were incubated with 100 μM of palmitic acid alkyne (in DMEM with 1 mg/ml defatted BSA) for 4 h at 37° C. Cells were washed twice in PBS, then lysed on ice in 50 mM Tris HCl, pH 7.4 with 150 mM NaCl, 1 mM EDTA, 1% TRITON X-100 and protein inhibitors. […]

[5] = biological target: T2, BTK-A (Homo sapiens, UniProt Q06187); assay: Acyl incorporation assay (click chemistry after Flag immunoprecipitation), BTK-A; type: cell-based; details: HEK293 cells co-expressing zDHHC5, 100 μM analogue for 4 h
T2 construct: cells expressing Flag-tagged, full-length versions of BTK-A and BTK-C; expressed in transfected cells; host or cells: HEK293
Protocol: as §1
Reporter construction and viral transgenesis: GFP fusion constructs were generated using a BTK pleckstrin homology domain fusion protein vector, PH-Btk-GFP (Addgene Plasmid #51463). BTK constructs (BTK-A R28C; BTK-C; BTK-C R28C; BTK-C C13A, C16A; BTK-C C13A,C16A,R28C) were generated in this plasmid using QuikChange site directed mutagenesis. The exon 1C sequence (FIG. 1B) was subcloned from the original cDNA isolate. […]

[6] = test system: BTK-A; assay: Activating tyrosine phosphorylation of BTK-A after insulin stimulation (immunoblot densitometry); type: cell-based, human; details: transfected HEK293 cells
Protocol: (§2) FIG. 5A-D present activating tyrosine phosphorylation of the BTK isoforms. BTK-A, BTK-C and BTK-C C13, C16 mutant constructs were transfected into HEK293 cell and after 24 hours stimulated with insulin. Values represent fold tyrosine-phosphorylated signal normalized to total BTK-A or BTK-C(anti-Flag) determined by densitometry; FIG. 5B presents phosphorylation of the BTK target tyrosine 759 of PLCγ2 in transfected HEK293 cells; FIG. 5C presents BTK-C expression increases proliferation rate of MDA-MB-231 (PTEN+) but not SUM149 (PTEN−) cells. Cells were seeded in 96 well plates and fixed with 4% formaldehyde and counted at 72 hours. Data were normalized to control and are presented as mean+SD. *p<0.05 using Student's ttest, n=3; and FIG. 5D presents BTK-C increases glucose uptake in MDA-MB-231 (PTEN+) but not SUM149 (PTEN−) cells. Cells were seeded and treated with 100 μM 2-NBDG for 15 min. Fluorescence images were acquired with an InCell 2200 and overall fluorescence intensity quantified. […]
(§3) Embodiment disclosed herein included the following materials and methods: Cell lines MD-AMB-231, BT549, SUM149, SKBr3 and ϕNX-AMPHO were obtained from the American Type Culture Collection (ATCC). […] In growth and uptake experiments, differences between control and treatment conditions were evaluated using Student's t test for pairwise comparisons. […]

[7] = test system: BTK-C; assay: Activating tyrosine phosphorylation of BTK-C after insulin stimulation (immunoblot densitometry); type: cell-based, human; details: transfected HEK293 cells
Protocol: as §2, §3

[8] = insulin stimulation under reduced serum conditions

T1 sequence (Q06187 1-693 isoform Q06187-2 M35A): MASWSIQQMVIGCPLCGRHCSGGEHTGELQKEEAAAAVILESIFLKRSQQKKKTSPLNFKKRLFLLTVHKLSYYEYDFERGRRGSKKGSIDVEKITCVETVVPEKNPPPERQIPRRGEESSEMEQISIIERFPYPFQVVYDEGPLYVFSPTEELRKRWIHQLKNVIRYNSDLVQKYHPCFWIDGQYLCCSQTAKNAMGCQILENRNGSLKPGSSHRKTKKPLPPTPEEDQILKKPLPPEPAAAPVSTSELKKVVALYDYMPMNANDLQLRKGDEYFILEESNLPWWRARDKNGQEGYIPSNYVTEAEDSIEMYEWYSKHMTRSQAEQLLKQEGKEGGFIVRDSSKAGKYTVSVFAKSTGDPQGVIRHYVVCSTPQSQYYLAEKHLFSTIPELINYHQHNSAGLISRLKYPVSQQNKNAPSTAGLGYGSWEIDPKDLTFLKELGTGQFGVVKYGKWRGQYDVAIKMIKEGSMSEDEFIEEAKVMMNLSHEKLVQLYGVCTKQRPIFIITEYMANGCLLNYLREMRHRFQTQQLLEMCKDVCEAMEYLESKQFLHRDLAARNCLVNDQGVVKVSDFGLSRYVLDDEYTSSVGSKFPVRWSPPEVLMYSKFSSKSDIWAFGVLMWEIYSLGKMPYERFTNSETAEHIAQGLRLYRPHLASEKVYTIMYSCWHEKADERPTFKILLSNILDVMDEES
T2 sequence (Q06187 whole entry): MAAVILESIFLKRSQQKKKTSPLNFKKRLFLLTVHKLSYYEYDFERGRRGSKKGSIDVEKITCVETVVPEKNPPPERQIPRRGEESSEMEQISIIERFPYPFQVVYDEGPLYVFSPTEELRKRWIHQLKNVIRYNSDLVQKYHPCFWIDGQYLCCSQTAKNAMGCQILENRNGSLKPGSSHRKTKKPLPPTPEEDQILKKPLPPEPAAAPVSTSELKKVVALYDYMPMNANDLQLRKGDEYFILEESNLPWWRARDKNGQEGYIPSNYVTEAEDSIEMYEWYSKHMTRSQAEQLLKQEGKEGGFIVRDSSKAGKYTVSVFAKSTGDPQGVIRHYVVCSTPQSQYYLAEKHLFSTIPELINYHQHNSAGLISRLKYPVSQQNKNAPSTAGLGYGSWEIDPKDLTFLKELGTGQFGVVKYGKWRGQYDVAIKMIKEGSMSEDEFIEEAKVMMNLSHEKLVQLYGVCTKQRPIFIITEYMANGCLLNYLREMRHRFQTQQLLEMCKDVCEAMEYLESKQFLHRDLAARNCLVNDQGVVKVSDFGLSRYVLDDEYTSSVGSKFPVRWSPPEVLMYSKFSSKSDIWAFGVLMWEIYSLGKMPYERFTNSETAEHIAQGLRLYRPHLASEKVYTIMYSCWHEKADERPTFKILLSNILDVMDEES

Compound: EGF: ligand used for stimulation of BTK activation (NSDSECPLSHDGYCLHDGVCMYIEALDKYACNCVVGYIGERCQYRDLKWWELR; UniProt P01133 971-1023, looked up)
increase of activating phosphorylation levels above unstimulated levels [1]: only modestly

Compound: C[C@H](Nc1ncnc2[nH]cnc12)c1cc2cccc(Cl)c2c(=O)n1-c1ccccc1 [IPI-145, Duvelisib]
toxicity [2]: less toxicity
toxicity [3]: significant toxicity

incorporation of acyl analogue label into BTK-C [4]: label is increased
incorporation of acyl analogue label into BTK-A [5]: not
Compound: C#CCCCCCCCCCCCCCCCC(=O)O [17-ODYA, 17-octadecynoic acid]

incorporation of acyl analogue label into BTK-C [4]: failed to observe incorporation
Compound: CCCCC/C=C\C/C=C\C/C=C\C/C=C\CCCC(=O)O [arachidonic acid]

Compound: Insulin: common activator of PI3K in cancer cells
transactivation (phosphorylation of BTK by its dimerized partner) of BTK-A ([6]; insulin stimulation (FIG. 5A)): largely unchanged
increase of Y551 phosphorylation of BTK-A [6, 8]: two-fold
transactivation (phosphorylation of BTK by its dimerized partner) of BTK-C ([7]; insulin stimulation (FIG. 5A)): largely unchanged
increase of Y551 phosphorylation of BTK-C [7, 8]: ~24%

incorporation of acyl analogue label into BTK-C [4]: failed to observe incorporation
Compound: CCCCCC/C=C\CCCCCCCC(=O)O [palmitoleic acid]

Compound: CCCCCCCC/C=C\CCCCCCCC(=O)O [oleic acid]
incorporation of acyl analogue label into BTK-C [4]: failed to observe incorporation
